Literature values, collected in patent US11872093B1, “Method of marking lesions” (NoduGloH LLC, priority 2022, dated 2024).

Conditions: ICG dye marking without use of a coil

## CC1(C)C(/C=C/C=C/C=C/C=C2\N(CCCCS(=O)(=O)O)c3ccc4ccccc4c3C2(C)C)=[N+](CCCCS(=O)(=O)[O-])c2ccc3ccccc3c21 [ICG dye, Indocyanine Green]
  persistence of dye effect after marking without a coil: fade away over several hours
